Laboratory results as given in ChEMBL document CHEMBL3603759, “Ribosome-targeting antibiotics as inhibitors of oncogenic microRNAs biogenesis: Old scaffolds for new perspectives in RNA targeting” (Bioorg Med Chem, 2015).
Activity calls are given as the source filed them. The calls are words filed in the database; no cut-off is given here.

Legend:
[1] = Inhibition of pre-miR-372 (unknown origin) cleavage at C27 at 10 to 100 uM after 15 mins by RNase footprinting assay in presence of RNase-V1
[2] = Inhibition of pre-miR-17 (unknown origin) cleavage assessed as reduction of oncogenic microRNAs biogenesis at 200 uM by measuring fluorescence every minute for 5 hrs using 5'-FAM,3'-dabcyl-pre-miRNA beacons by FRET assay in presence of recombinant Dicer
[3] = Binding affinity to 5'-FAM-pre-miR-372 (unknown origin) after 4 hrs by fluorescence assay in presence of 100-fold excess of 15-mer DNA
[4] = Inhibition of pre-miR-372 (unknown origin) cleavage assessed as reduction of oncogenic microRNAs biogenesis by measuring fluorescence every minute for 5 hrs using 5'-FAM,3'-dabcyl-pre-miRNA beacons by FRET assay in presence of recombinant Dicer
[5] = Binding affinity to 5'-FAM-pre-miR-372 (unknown origin) after 4 hrs by fluorescence assay in presence of 100-fold excess of Escherichia coli tRNA
[6] = Inhibition of pre-miR-373 (unknown origin) cleavage assessed as reduction of oncogenic microRNAs biogenesis by measuring fluorescence every minute for 5 hrs using 5'-FAM,3'-dabcyl-pre-miRNA beacons by FRET assay in presence of recombinant Dicer
[7] = Inhibition of pre-miR-372 (unknown origin) cleavage at A10-A11 at 10 to 100 uM after 15 mins by RNase footprinting assay in presence of RNase-V1
[8] = Ratio of Kd for 5'-FAM-pre-miR-372 (unknown origin) in presence of 100-fold excess of 15-mer DNA to Kd for 5'-FAM-pre-miR-372 (unknown origin)
[9] = Inhibition of pre-miR-372 (unknown origin) cleavage at U15-G16-G17-A18 at 10 to 100 uM after 15 mins by RNase footprinting assay in presence of RNase-V1
[10] = Inhibition of pre-miR-21 (unknown origin) cleavage assessed as reduction of oncogenic microRNAs biogenesis at 200 uM by measuring fluorescence every minute for 5 hrs using 5'-FAM,3'-dabcyl-pre-miRNA beacons by FRET assay in presence of recombinant Dicer
[11] = Inhibition of pre-miR-372 (unknown origin) cleavage at A24 at 1 to 100 uM after 2 hrs by denaturing gel electrophoresis in presence of recombinant Dicer
[12] = Inhibition of pre-miR-372 (unknown origin) cleavage assessed as reduction of oncogenic microRNAs biogenesis at 200 uM by measuring fluorescence every minute for 5 hrs using 5'-FAM,3'-dabcyl-pre-miRNA beacons by FRET assay in presence of recombinant Dicer
[13] = Ratio of Kd for 5'-FAM-pre-miR-372 (unknown origin) in presence of 100-fold excess of Escherichia coli tRNA to Kd for 5'-FAM-pre-miR-372 (unknown origin)
[14] = Inhibition of pre-miR-372 (unknown origin) cleavage at 10 to 100 uM after 15 mins by RNase footprinting assay in presence of RNase-S1
[15] = Inhibition of pre-miR-373 (unknown origin) cleavage assessed as reduction of oncogenic microRNAs biogenesis at 200 uM by measuring fluorescence every minute for 5 hrs using 5'-FAM,3'-dabcyl-pre-miRNA beacons by FRET assay in presence of recombinant Dicer
[16] = Binding affinity to 5'-FAM-pre-miR-17 (unknown origin) after 4 hrs by fluorescence assay; settings: read-out: Kd
[17] = Binding affinity to 5'-FAM-pre-miR-372 (unknown origin) assessed as change in total free energy by thermodynamic assay
[18] = Inhibition of pre-miR-372 (unknown origin) cleavage at U28 at 1 to 100 uM after 2 hrs by denaturing gel electrophoresis in presence of recombinant Dicer
[19] = Inhibition of pre-miR-17 (unknown origin) cleavage assessed as reduction of oncogenic microRNAs biogenesis by measuring fluorescence every minute for 5 hrs using 5'-FAM,3'-dabcyl-pre-miRNA beacons by FRET assay in presence of recombinant Dicer
[20] = Inhibition of pre-miR-372 (unknown origin) cleavage at A42 at 1 to 100 uM after 2 hrs by denaturing gel electrophoresis in presence of recombinant Dicer
[21] = Binding affinity to 5'-FAM-pre-miR-373 (unknown origin) after 4 hrs by fluorescence assay; settings: read-out: Kd
[22] = Binding affinity to 5'-FAM-pre-miR-372 (unknown origin) after 4 hrs by fluorescence assay; settings: read-out: Kd
[23] = Inhibition of pre-miR-21 (unknown origin) cleavage assessed as reduction of oncogenic microRNAs biogenesis by measuring fluorescence every minute for 5 hrs using 5'-FAM,3'-dabcyl-pre-miRNA beacons by FRET assay in presence of recombinant Dicer
[24] = Inhibition of pre-miR-372 (unknown origin) cleavage at U31, G32 and U33 at 1 to 100 uM after 15 mins by RNase footprinting assay in presence of RNase-S1
[25] = Inhibition of pre-miR-372 (unknown origin) cleavage at 1 to 100 uM after 15 mins by RNase footprinting assay in presence of RNase-V1

inhibition [2] | Kd [3] | IC50 [4] | IC50 [6] | Ratio [8] | inhibition [10] | inhibition [11] | inhibition [12] | Ratio [13] | inhibition [15] | Kd [16] | Activity [17] | inhibition [18] | IC50 [19] | inhibition [20] | Kd [21] | Kd [22] | IC50 [23] | SMILES | Kd [5] | also measured
60% | 11.3 µM | 88.2 µM | 143 µM | 1 | 60% | Active | 60% | 1 | 60% | 1.88 µM | 70% | Active | 93.7 µM | Active | 15.2 µM | 11.6 µM | 76.7 µM | NC[C@@H]1O[C@H](O[C@H]2[C@@H](O)[C@H](O[C@@H]3[C@@H](O)[C@H](N)C[C@H](N)[C@H]3O[C@H]3O[C@H](CN)[C@@H](O)[C@H](O)[C@H]3N)O[C@@H]2CO)[C@H](N)[C@@H](O)[C@@H]1O [FRAMYCETIN] | 11.7 µM | inhibition [1]: Active; inhibition [7]: Active; inhibition [9]: Active; inhibition [14]: inactive
30% | 1.45 µM | 397 µM | 327 µM | 2.4 | 30% | inactive | 30% | 3.2 | 30% | 0.651 µM | 91% | inactive | 129 µM | inactive | 0.597 µM | 0.612 µM | 369 µM | CN(C)c1ccc(O)c2c1C[C@H]1C[C@H]3[C@H](N(C)C)C(O)=C(C(N)=O)C(=O)[C@@]3(O)C(O)=C1C2=O [MINOCYCLINE] | 1.98 µM | inhibition [24]: Active; inhibition [25]: inactive
